Results taken from patent US6992105B2, “Dipeptide derivatives” (Novartis AG, priority 2001, dated 2006).
pIC50: −log10 of the molar value. Ends that are not written are not given here.

biological target: rabbit antibodies that recognize specifically the carboxyl terminal tryptophan of ET-1; assay: radioimmunoassay: displacement of [125I]ET-1 binding to anti-ET-1 antibodies; conditions: mean±SEM, n=3–5
Description: Diluted samples (200 μL) obtained from the above enzyme assay are incubated at 4° C. overnight with 25 μL each of [^125I]ET-1 (10,000 cpm/tube) and 1:20,000-fold diluted rabbit antibodies that recognize specifically the carboxyl terminal tryptophan of ET-1. Goat anti-rabbit antibodies coupled to magnetic beads (70 μg) are then added to each tube, and the reaction mixture is further incubated for 30 minutes at room temperature. The beads are pelleted using a magnetic rack. The supernatant is decanted, and the radioactivity in the pellet is counted in a gamma counter. Total and nonspecific binding are measured in the absence of non-radioactive ET-1 and anti-ET antibodies, respectively.

Q: Which “IC50 for displacement of [125I]ET-1 binding to the antibodies” value does the source give for “ET-1: endothelin-1, non-radioactive peptide formed from big ET-1 by ECE; standard in the RIA” here?
A: 21 ± 2 fmol

Q: Which “IC50 for displacement of [125I]ET-1 binding to the antibodies” value does the source give for “big ET-1: human big ET-1, substrate of ECE-1 in the enzyme assay (CSCSSLMDKECVYFCHLDIIWVNTPEHVVPYGLGSPRS; ends and bridges not checked; cysteine pairing not given here; UniProt P05305 53-90, looked up)” here?
A: 260,000±66,000 fmol

system: not given; assay: not given; conditions: not given

Q: Which melting point does the source give for CCOC(=O)[C@@H](NC(=O)C(C)(C)NC(=O)[C@@H](SC(C)=O)C(C)C)[C@@H](C)OCc1ccccc1 [Example 1(c), N-[2-[(S)-2-acetylthio-3-methylbutanoylamino]-2-methylpropionyl]-O-benzyl-L-threonine ethyl ester] here?
A: 121 to 122 °C

Q: Which melting point does the source give for CCOC(=O)[C@H](COCc1ccccc1)NC(=O)C(C)(C)NC(=O)[C@@H](SC(=O)Cn1cncn1)C(C)C [Example 1(p), N-[2-[(S)-2-[(1-(1,2,4)-triazolyl)acetylthio]-3-methylbutanoylamino]-2-methylpropionyl]-O-benzyl-L-serine ethyl ester] here?
A: 106 to 107 °C

Q: With CCOC(=O)[C@H](COCc1ccccc1)NC(=O)C(C)(C)NC(=O)[C@@H](SC(=O)CN1CCN(C)CC1)C(C)C [Example 1(q), N-[2-[(S)-2-[(4-methylpiperazino)acetylthio]-3-methylbutanoylamino]-2-methylpropionyl]-O-benzyl-L-serine ethyl ester] as the compound, how does the melting point read?
A: 95 to 96 °C

Q: For CC(C)[C@H](S)C(=O)NC1(C(=O)N[C@@H](COCc2ccccc2)C(=O)O)CCCC1 [Example 6(b), N-[1-[(S)-2-mercapto-3-methylbutanoylamino]-cyclopentanecarbonyl]-O-benzyl-L-serine], which melting point is on record?
A: 132 to 136 °C

Q: Which melting point does the source give for CC(C)[C@H](S)C(=O)NC(C)(C)C(=O)N[C@@H](CSCc1ccccc1)C(=O)O [Example 6(c), N-[2-[(S)-2-mercapto-3-methylbutanoylamino]-2-methylpropionyl]-S-benzyl-L-cysteine] here?
A: 81 to 87 °C

Q: With CC(C)[C@H](S)C(=O)NC(C)(C)C(=O)N[C@H](C(=O)O)[C@@H](C)OCc1ccccc1 [Example 6(d), N-[2-[(S)-2-mercapto-3-methylbutanoylamino]-2-methylpropionyl]-O-benzyl-L-threonine] as the compound, how does the melting point read?
A: 61 to 64 °C

Q: For CC(C)(NC(=O)[C@@H](S)C(C)(C)C)C(=O)N[C@@H](COCc1ccccc1)C(=O)O [Example 6(e), N-[2-[(S)-2-mercapto-3,3-dimethylbutanoylamino]-2-methylpropionyl]-O-benzyl-L-serine], which melting point is on record?
A: 128 to 130 °C

Q: With CC(C)[C@H](S)C(=O)NC(C)(C)C(=O)N[C@@H](COCc1ccc(F)cc1)C(=O)O [Example 6(f), N-[2-[(S)-2-mercapto-3-methylbutanoylamino]-2-methylpropionyl]-O-(4-fluorobenzyl)-L-serine] as the compound, how does the melting point read?
A: 50 to 54 °C

Q: With CC(C)[C@H](S)C(=O)NC(C)(C)C(=O)N[C@@H](CCOc1ccc(F)cc1)C(=O)O [Example 6(g), N-[2-[(S)-2-mercapto-3-methylbutanoylamino]-2-methylpropionyl]-O-(4-fluorophenyl)-L-homoserine] as the compound, how does the melting point read?
A: 127 to 128 °C

Q: For CC(C)[C@H](S)C(=O)NC(C)(C)C(=O)N[C@@H](CCOc1cccc(F)c1)C(=O)O [Example 6(h), N-[2-[(S)-2-mercapto-3-methylbutanoylamino]-2-methylpropionyl]-O-(3-fluorophenyl)-L-homoserine], which melting point is on record?
A: 50 to 56 °C

Q: With CC(C)(NC(=O)[C@@H](S)C1CCOCC1)C(=O)N[C@@H](COCc1ccccc1)C(=O)O [Example 6(j), N-[2-[(S)-2-mercapto-2-(4-tetrahydropyranyl)acetylamino]-2-methylpropionyl]-O-benzyl-L-serine] as the compound, how does the melting point read?
A: 184 to 189 °C

biological target: T1, NEP (EC 3.4.24.11) (Rattus norvegicus, UniProt P07861); assay: in vitro inhibition of NEP (GAAP substrate, rat kidney cortex membranes); assay type: biochemical; conditions: substrate glutaryl-Ala-Ala-Phe-2-naphthylamide (GAAP)
T1 construct: protein (rat kidney cortex membranes prepared by method of Maeda et al., 1983); from tissue; host or cells: rat kidney cortex membranes
T1 sequence (P07861 1-750): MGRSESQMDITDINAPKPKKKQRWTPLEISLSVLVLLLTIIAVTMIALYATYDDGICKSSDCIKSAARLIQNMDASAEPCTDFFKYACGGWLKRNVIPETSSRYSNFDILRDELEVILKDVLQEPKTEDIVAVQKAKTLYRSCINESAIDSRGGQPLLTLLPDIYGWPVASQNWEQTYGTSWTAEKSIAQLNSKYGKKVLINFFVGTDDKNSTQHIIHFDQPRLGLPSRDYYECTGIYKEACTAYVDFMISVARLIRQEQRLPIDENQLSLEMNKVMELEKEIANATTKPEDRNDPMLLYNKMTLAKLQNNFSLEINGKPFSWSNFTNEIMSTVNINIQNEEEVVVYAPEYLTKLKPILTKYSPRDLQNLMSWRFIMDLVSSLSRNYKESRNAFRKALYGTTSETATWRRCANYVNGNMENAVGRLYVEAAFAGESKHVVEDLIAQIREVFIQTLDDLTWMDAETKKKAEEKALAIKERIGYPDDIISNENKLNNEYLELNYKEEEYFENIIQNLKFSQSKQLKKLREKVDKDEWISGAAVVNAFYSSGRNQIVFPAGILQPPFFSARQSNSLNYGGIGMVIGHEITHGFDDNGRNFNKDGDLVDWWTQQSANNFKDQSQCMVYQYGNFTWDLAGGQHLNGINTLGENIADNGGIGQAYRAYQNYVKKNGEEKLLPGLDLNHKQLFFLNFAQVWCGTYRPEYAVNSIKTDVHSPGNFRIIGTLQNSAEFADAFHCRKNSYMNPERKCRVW
Description: The in vitro inhibition of NEP (EC 3.4.24.11) can be determined as follows:
NEP 3.4.24.11 activity is determined by the hydrolysis of the substrate glutaryl-Ala-Ala-Phe-2-naphthylamide (GAAP) using a modified procedure of Orlowski and Wilk (1981). The incubation mixture (total volume 125 μL) contains 4.2 μL of protein (rat kidney cortex membranes prepared by method of Maeda et al., 1983), 50 mM tris buffer, pH 7.4 at 25° C., 500 μM substrate (final concentration), and leucine aminopeptidase M (2.5 μg). The mixture is incubated for 10 minutes at 25° C., and 100 μL of fast garnet (250 μg fast garnet/mL of 10% Tween 20 in 1 M sodium acetate pH 4.2) is added. Enzyme activity is measure spectrophotometrically at […]. One unit of NEP 24.11 activity is defined as 1 nmol of 2-naphthylamine released per minute at 25° C. at pH 7.4. IC50 values are determined, i.e., the concentration of test compound required for 50% inhibition of the release of 2-naphthylamine.
NEP activity can also be determined using ANF as a substrate. ANF degrading activity is determined by measuring the disappearance of rat-ANF (r-ANF) using a 3-minute reverse phase-HPLC separation. An aliquot of the enzyme in 50 mM tris HCl buffer, pH 7.4, is pre-incubated at 37° C. for 2 minutes and the reaction is initiated by the addition of 4 nmol of r-ANF in a total volume of 50 μL. […]

Q: With CC(C)[C@H](S)C(=O)NC(C)(C)C(=O)N[C@@H](COCc1ccccc1)C(=O)O [Example 6(a), N-[2-[(S)-2-Mercapto-3-methylbutanoylamino]-2-methylpropionyl]-O-benzyl-L-serine] as the compound, how does the pIC50 read?
A: ~8.30

system: angiotensin I induced pressor response (ACE); assay: inhibition of the angiotensin I induced pressor response in normotensive rats; assay type: in vivo, rat; conditions: 10 mg/kg i.v., conscious normotensive rats
Description: The in vivo test for i.v. administered compounds is performed with male, normotensive rats, which are conscious. A femoral artery and femoral vein are cannulated respectively for direct blood pressure measurement on i.v. administration of angiotensin I and i.v. or p.o. administration of a compound of this invention. After the basal blood pressure is stabilized, pressor responses to 3 or 4 challenges of 300 ng/kg angiotensin I i.v., at 15-minute intervals, are obtained. Such pressure responses are usually again obtained at 15, 30, 60 and 90 minutes, and then every hour up to 6 hours after i.v. or p.o. administration of the compound to be tested, and compared with the initial responses. Any observed decrease of said pressor response is an indication of ACE inhibition.

Q: Which “duration of inhibition of the angiotensin I induced pressor response” value does the source give for CC(C)[C@H](S)C(=O)NC(C)(C)C(=O)N[C@@H](COCc1ccccc1)C(=O)O [Example 6(a), N-[2-[(S)-2-Mercapto-3-methylbutanoylamino]-2-methylpropionyl]-O-benzyl-L-serine] here?
A: 3 h

biological target: angiotensin converting enzyme (ACE) (Homo sapiens, UniProt P12821); assay: in vitro inhibition of ACE (hippuryl-histidyl-leucine substrate); assay type: biochemical; conditions: ACE in vitro assay
Description: In vitro testing is most appropriate for the free carboxylic acids of the invention. The test compound is dissolved in dimethyl sulfoxide, ethanol or 0.25 M sodium bicarbonate solution, and the solution is diluted with buffer to the desired concentration.
The buffer for the ACE assay is 300 mM NaCl, 100 mM KH2PO4 (pH 8.3). The reaction is initiated by the addition of 100 μL of hippuryl-histidyl-leucine (2 mg/mL) to tubes containing enzyme and drug in a volume of 150 μL and tubes are incubated for 30 minutes at 37° C. The reaction is terminated by the addition of 0.75 mL 0.6 N NaOH. 100 μL of freshly prepared O-pthaldehyde solution (2 mg/mL in methanol) is added to the tubes, the contents are mixed and allowed to stand at room temperature. After 10 minutes, 100 μL of 6 N HCl is added. The tubes are centrifuged and the supernatant optical density is read at 360 nm. The results are plotted against drug concentration to determine the IC50, i.e., the drug concentration which gives half the activity of the control sample containing no drug.

angiotensin converting enzyme (ACE), sequence (P12821 30-1306, species assumed): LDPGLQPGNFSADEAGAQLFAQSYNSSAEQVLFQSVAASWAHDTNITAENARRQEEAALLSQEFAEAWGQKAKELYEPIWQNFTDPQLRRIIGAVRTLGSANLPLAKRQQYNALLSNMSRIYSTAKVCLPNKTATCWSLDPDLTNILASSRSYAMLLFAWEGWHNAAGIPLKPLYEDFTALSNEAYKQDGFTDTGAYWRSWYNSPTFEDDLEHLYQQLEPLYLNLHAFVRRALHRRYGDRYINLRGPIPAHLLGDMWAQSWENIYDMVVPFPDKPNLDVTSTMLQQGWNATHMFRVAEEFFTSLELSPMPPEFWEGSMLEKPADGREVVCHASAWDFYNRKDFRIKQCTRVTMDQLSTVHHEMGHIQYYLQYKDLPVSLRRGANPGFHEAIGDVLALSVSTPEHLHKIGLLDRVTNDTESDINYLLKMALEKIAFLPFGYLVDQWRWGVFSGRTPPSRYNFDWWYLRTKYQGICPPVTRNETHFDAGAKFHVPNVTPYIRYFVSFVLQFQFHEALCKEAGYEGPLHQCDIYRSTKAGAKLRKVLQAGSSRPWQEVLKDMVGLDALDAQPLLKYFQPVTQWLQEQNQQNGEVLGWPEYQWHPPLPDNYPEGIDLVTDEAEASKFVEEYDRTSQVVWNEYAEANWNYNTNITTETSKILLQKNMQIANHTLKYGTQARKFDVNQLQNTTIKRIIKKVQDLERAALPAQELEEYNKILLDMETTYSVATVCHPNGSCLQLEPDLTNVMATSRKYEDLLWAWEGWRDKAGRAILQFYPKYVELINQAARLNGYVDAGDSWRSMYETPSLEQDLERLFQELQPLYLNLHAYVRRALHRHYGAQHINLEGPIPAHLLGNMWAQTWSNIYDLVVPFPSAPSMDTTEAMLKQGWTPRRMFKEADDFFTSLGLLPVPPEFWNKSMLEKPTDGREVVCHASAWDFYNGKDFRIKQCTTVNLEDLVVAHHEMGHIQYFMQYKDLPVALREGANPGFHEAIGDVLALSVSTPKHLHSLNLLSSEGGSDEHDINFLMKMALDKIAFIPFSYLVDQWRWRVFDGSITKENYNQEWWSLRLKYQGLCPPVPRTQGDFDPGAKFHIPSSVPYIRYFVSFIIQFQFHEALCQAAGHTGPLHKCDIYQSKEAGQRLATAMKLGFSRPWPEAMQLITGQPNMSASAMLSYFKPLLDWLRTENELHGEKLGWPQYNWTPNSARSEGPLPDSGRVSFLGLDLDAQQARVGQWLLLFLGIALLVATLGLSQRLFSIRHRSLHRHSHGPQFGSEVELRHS

Q: With CC(C)[C@H](S)C(=O)NC(C)(C)C(=O)N[C@@H](COCc1ccccc1)C(=O)O [Example 6(a), N-[2-[(S)-2-Mercapto-3-methylbutanoylamino]-2-methylpropionyl]-O-benzyl-L-serine] as the compound, how does the pIC50 read?
A: ~7.70
